The results in this text go back to PMC6917733 (Scientific Reports, 2019).

“And” between values parts separate entries of the source, which are not always exact repeats. Equal values may be shown once. Bridge positions count the residues as written; N and C are the ends. Peptide text beside a SMILES is read from it. A value given as a limit tells only on which side of the number the result lay.

The target in assay [1] is T1, human V1aR (Homo sapiens, UniProt P37288). As to the kind of experiment: β-arrestin-2 recruitment BRET at V1aR. (In general: Arrestin recruitment assays detect the binding of arrestin to an activated receptor.)
For assay [2], the system named is V2R-mediated ERK 1/2 phosphorylation. As to the kind of experiment: Immunoblotting for ERK 1/2 phosphorylation in HEK293 cells expressing V2R. The following applies: 1 µM peptide. It is filed as cell-based, human. Here is the method: Immunoblotting was performed as described previously. Briefly, following an overnight incubation and 16 h starvation HEK293 cells transiently expressing human V2R were treated with 1 µM I8-arachnotocin or 1 µM VP prepared in DMEM. Cells were incubated with peptide ligands at 37 °C for indicated periods and 1 mL of chilled 1x phosphate-buffered saline were used to terminate the incubation. After freeze-thaw cycle in liquid nitrogen cells were solubilized in 100 µl of lysis buffer (50 mM HEPES, 0.5% NP-40 substitute, 50 mM glycerol-2-phosphate, 250 mM NaCl, 5 mM EDTA, 2 mM imidazole, 1 mM Na3VO4, 1 mM hepta-molybdate, pH adjusted to 7.0 with NaOH), freshly added 1 mM PMSF, one cOmplete Mini EDTA-free tablet (Roche) and one PhosSTOP tablet (Roche) and then centrifuged at 10,000 × g for 10 min. The bicinchoninic acid assay (Micro-BCA kit, Pierce) was used to measure total protein content. Phosphorylated and total ERK 1/2 were detected by immunoblotting on the same membrane using the same exposure method with an anti-phospho-p44/42 MAPK antibody (ERK 1/2) (1:1,000; Cell Signaling Technology) and an anti-p44/42 MAPK (ERK 1/2) (1:1,000; Cell Signaling Technology), respectively. Detection and quantification of resulting bands were executed by secondary antibodies (Donkey anti rabbit 680RD and […]) and Odyssey Clx (LiCor Biosciences) infrared fluorescent imaging system, respectively.

Assay [3] has as its target T1, human V1aR. As to the kind of experiment: IP1 accumulation (IP-One Gq assay), HEK293 cells expressing V1aR. The settings on record: concentrations up to 10 µM.
Assay [4] has as its target T2, human V2R (Homo sapiens, UniProt P30518). As to the kind of experiment: β-arrestin-1 recruitment BRET at V2R.
Assay [5] deals with T2, human V2R. Kind of assay: cAMP accumulation (LANCE Ultra cAMP), HEK293 cells expressing V2R. For orientation: Cyclic AMP is a second messenger, typically raised through Gs and lowered through Gi signalling.
The target of assay [6] is T2, human V2R. Kind of assay: β-arrestin-2 recruitment BRET at V2R. It is filed as cell-based. Details: expressed in transfected cells; host or cells: HEK293.
Assay [7] addresses T1, human V1aR. As to the kind of experiment: Antagonist screen and Schild regression analysis (IP1) at V1aR.
The target in assay [8] is T3, human OTR (Homo sapiens, UniProt P30559).
T3 sequence (P30559 1-389): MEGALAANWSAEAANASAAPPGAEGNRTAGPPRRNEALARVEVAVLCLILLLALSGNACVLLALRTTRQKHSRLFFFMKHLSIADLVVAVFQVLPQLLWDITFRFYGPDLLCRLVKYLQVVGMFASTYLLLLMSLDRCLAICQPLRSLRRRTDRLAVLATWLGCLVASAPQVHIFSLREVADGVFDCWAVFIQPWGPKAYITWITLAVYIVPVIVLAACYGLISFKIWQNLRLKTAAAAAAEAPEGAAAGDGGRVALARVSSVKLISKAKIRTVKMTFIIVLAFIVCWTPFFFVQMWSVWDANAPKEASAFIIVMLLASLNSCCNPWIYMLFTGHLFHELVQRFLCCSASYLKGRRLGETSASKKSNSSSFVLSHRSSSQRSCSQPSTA
As to the kind of experiment: IP1 accumulation (IP-One Gq assay), HEK293 cells expressing OTR.

For assay [9], the target named is T4, human V1bR (Homo sapiens, UniProt P47901).
T4 sequence (P47901 1-424): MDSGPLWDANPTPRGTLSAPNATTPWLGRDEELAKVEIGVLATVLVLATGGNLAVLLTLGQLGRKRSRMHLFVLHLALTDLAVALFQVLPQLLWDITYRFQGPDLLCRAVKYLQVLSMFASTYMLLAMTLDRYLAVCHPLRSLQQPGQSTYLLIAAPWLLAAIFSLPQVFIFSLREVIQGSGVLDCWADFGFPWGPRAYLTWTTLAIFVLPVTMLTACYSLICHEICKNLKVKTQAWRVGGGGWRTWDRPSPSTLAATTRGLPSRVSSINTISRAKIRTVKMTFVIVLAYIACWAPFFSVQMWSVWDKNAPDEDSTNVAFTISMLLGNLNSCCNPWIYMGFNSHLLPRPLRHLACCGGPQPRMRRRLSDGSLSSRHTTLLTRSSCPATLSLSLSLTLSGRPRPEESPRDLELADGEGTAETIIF
Kind of assay: β-arrestin-2 recruitment BRET at V1bR. Details: expressed in transfected cells; host or cells: HEK293. It is filed as cell-based. The following applies: for EC50: β-arrestin-2 recruitment.

The target of assay [10] is T3, human OTR. Kind of assay: β-arrestin-2 recruitment BRET at OTR.
Assay [11] has as its target T4, human V1bR. Kind of assay: IP1 accumulation (IP-One Gq assay), HEK293 cells expressing V1bR.
Assay [12] has as its target EGFP-tagged human vasopressin V1b receptor (human) (UniProt P47901).
For assay [13], the target named is EGFP-tagged human oxytocin receptor (human) (UniProt P30559).
The target in assay [14] is EGFP-tagged human vasopressin V1b receptor (human) (UniProt P47901). The source holds these as a separate data set.
Assay [15] concerns the target EGFP-tagged human oxytocin receptor (human) (UniProt P30559). This is another data set of the same source.
The target of assay [16] is EGFP-tagged human vasopressin V1a receptor (human) (UniProt P37288).
Assay [17] deals with EGFP-tagged human vasopressin V2 receptor (human) (UniProt P30518).
For assay [18] the target is unchanged. The source holds these as a separate data set.

For orientation: Emax means the greatest response seen or fitted, relative to the assay's reference. What is called pA2 is a measure of antagonist potency on a negative log scale. As for `CC[C@H](C)[C@@H]1NC(=O)[C@H](Cc2ccccc2)NC(=O)[C@@H](N)CSSC[C@@H](C(=O)N2CCC[C@H]2C(=O)N[C@H](C(=O)NCC(N)=O)[C@@H](C)CC)NC(=O)[C@H](CC(N)=O)NC(=O)[C@H]([C@@H](C)O)NC1=O` [I8-arachnotocin] (H-CFITNCPIG-NH2; disulfide 1-6; N-terminus assumed), the β-arrestin-2 recruitment kinetics entry in assay [1] (10 µM ligand) was “absent”; in assay [6] (10 µM ligand), “absent”; in [10] (OTR, 10 µM ligand) it was “absent”. Moreover, the β-arrestin-2 recruitment result in assay [1] (concentration up to 100 µM) is “no I8-arachnotocin-induced β-arrestin-2 recruitment was detected”; in [6] (up to a concentration of 100 µM), “did not recruit β-arrestin-2”. The “course of ERK 1/2 phosphorylation after the peak (late phase, 30–120 min)” value in [2] (1 min to 2 h) is listed as “decreased over time”. For the same molecule, in assay [2] (HEK293 expressing human V2R), the “time of peak ERK 1/2 phosphorylation” value is listed as 5 min. The “activation of V1aR” value in assay [3] is on record as “No activation”. In addition, the β-arrestin-1 recruitment kinetics result in assay [4] (10 µM ligand, time-dependent) is listed as “failed to recruit β-arrestin-1”. Moreover, the β-arrestin-1 recruitment result in assay [4] (up to 100 µM) is recorded as “no β-arrestin-1 recruitment”. The EC50 in assay [5] (EC50, cAMP accumulation, G protein-mediated, V2R) was 34 nM; in [5] (pEC50 (as logEC50 ± SEM), cAMP accumulation, V2R), 33.9 nM; in assay [6] (β-arrestin-1 or -2 recruitment, read-out: EC50 of β-arrestin-dependent signaling pathway), over 100000 nM; in [8] (EC50, IP1 accumulation, G protein-mediated, OTR), 790 nM; in [8] (pEC50 (as logEC50 ± SEM), IP1 accumulation, OTR), 776 nM; in assay [9] (V1bR, read-out: EC50), 1200 nM. Further, the EC50 in [9] (V1bR, read-out: pEC50 (as logEC50 ± SEM) (converted)) was 1200 nM; in [10] (EC50, β-arrestin-2 recruitment, OTR) it was 5700 nM; in assay [10] (pEC50 (as logEC50 ± SEM), β-arrestin-2 recruitment, OTR), 5750 nM; in assay [11] (EC50, IP1 accumulation, G protein-mediated, V1bR) it was 1200 nM; in assay [11] (pEC50 (as logEC50 ± SEM), IP1 accumulation, V1bR) it was 1170 nM. Further, the Emax was 99 ± 3% in assay [5] (HEK293); 62 ± 6% in assay [8] (HEK293); 65 ± 5% in assay [9]; 32 ± 5% in [10]; 104 ± 8% in assay [11] (HEK293). The type of agonism result in assay [5] (V2R, second messenger signaling) is “full agonist”; in assay [8] (OTR, second messenger signaling) it was “partial agonist”; in assay [11] (V1bR, second messenger signaling), “full agonist”. The “fold less potent compared to the endogenous peptide” value in [5] (V2R, vs VP) was 5,000 fold; in [8] (OTR, vs OT), 65 fold; in assay [11] (V1bR, vs VP), 750 fold. Also, the “difference non-β-arrestin-dependent vs β-arrestin-dependent EC50” value in assay [6] was > 2,000 fold. Besides, in [7] (Schild regression at V1aR), the “pA2 expressed as concentration” value was 558 nM and ~ 558 nM. Besides, the pA2 in assay [7] (Schild regression, VP curves in presence of 1, 3, 10 µM I8-arachnotocin) was 6.25 and 6.253. This molecule also registered a Schild regression slope in assay [7] (V1aR, VP as agonist) of 1.28 ± 0.02. The type of antagonism entry in assay [7] (V1aR, dextral shift without affecting Emax) is reported as “competitive antagonist”. Besides, the “IP1 levels in antagonist screen” value in assay [7] (VP (0.55 nM) in the presence of 1 and 10 µM I8-arachnotocin) was “lower IP1 levels than VP alone”. Moreover, the “bias (method of Kenakin) compared to VP” value in assay [9] (V1bR, G protein vs β-arrestin-2) is recorded as “did not detect differences”. In [10] (OTR, G protein vs β-arrestin-2), the “bias (method of Kenakin) compared to OT” value is “did not detect differences”.
I8-arachnotocin (peptide) showed a β-arrestin-2 recruitment to V1bR (BRET) against I8-arachnotocin concentration; EC50 in assay [12] of 1200 nM. The molecule further registered a β-arrestin-2 recruitment to OTR (BRET) against I8-arachnotocin concentration; EC50 in assay [13] of 5700 nM. In assay [14], this molecule registered an IP1 accumulation (Gαq) in HEK293 cells expressing human V1bR; EC50 of 1200 nM and an IP1 accumulation (Gαq) in HEK293 cells expressing human V1bR; Emax relative to VP of 104%. Besides, in assay [15], the IP1 accumulation (Gαq) in HEK293 cells expressing human OTR; EC50 is 790 nM and the IP1 accumulation (Gαq) in HEK293 cells expressing human OTR; Emax relative to OT came out at 62%. Besides, in assay [16], the Schild regression of VP-induced IP1 accumulation at human V1aR in the presence of 1, 3 and 10 µM I8-arachnotocin (blocks VP at V1aR); pA2 stood at 6.25; the Schild regression of VP-induced IP1 accumulation at human V1aR in the presence of 1, 3 and 10 µM I8-arachnotocin (blocks VP at V1aR); pA2 as a concentration came out at 558 nM. In assay [17], the cAMP accumulation (Gαs) in HEK293 cells expressing human V2R; EC50 is 34 nM and the cAMP accumulation (Gαs) in HEK293 cells expressing human V2R; Emax relative to VP is 99%. Further, in [18], the non-β-arrestin-dependent signaling at V2R as restated in the discussion; EC50 was 50 nM and the β-arrestin-dependent signaling (β-arrestin recruitment) at V2R as restated in the discussion; EC50 was over 100000 nM.
In turn, “oxytocin (from UniProt P01178 20-28) (peptide)” yielded a β-arrestin-2 recruitment to OTR (BRET) against OT concentration; EC50 in [13] of 170 nM. Besides, the IP1 accumulation (Gαq) in HEK293 cells expressing human OTR; EC50 in assay [15] amounted to 12 nM.
